20 molecules from US10947205B2, “Oxazolidinone compounds and methods of use thereof as antibacterial agents” (priority 2015, dated 2021) can be followed below.

In brackets after ≈: the same amount, converted by molar mass. Where two headings read alike, the source gives them in different places. A value given as a limit tells only on which side of the number the result lay.

Test [1] deals with Mycobacterium tuberculosis (Mtb). Briefly: microbe, parasite or virus in culture. Format: cell-based, Mycobacterium tuberculosis H37Rv (Mtb-GFP). Particulars: 168 h.
Test [2] has as its system Staphylococcus aureus (methicillin resistant, MB5393, COL). Briefly: microbe, parasite or virus in culture. Format: cell-based. Particulars: MRSA, 22 h, read-out: MRSA COL MITC95 μM. As for the experimental part:
Inhibition of Staphylococcus aureus (methicillin resistant, MB5393, COL) growth was assessed in cation adjusted Mueller Hinton II broth (CAMHB) in 384-well microtiter plates. Bacteria were dispensed into microtiter plates at approximately 5×10^5 actively growing cells in 49 μL volumes per well. Cells were exposed to 2-fold serial dilutions of compounds from 200 μM to 0.195 μM and growth compared to drug-free control. Compound dilutions were prepared in 100% dimethylsulfoxide and added to microtiter plates in 1 μL volumes per well. Full growth control wells contained dimethylsufoxide and bacteria. No growth control wells contained dimethysulfoxide and CAMHB but no bacteria. Growth inhibition was assessed after a 22-hour growth period by measuring optical density using a spectrophotometer. The lowest concentration of test compound required to inhibit 95% of the growth of the bacteria was defined as the MITC95. All studies were done in a BSL2 facility.

Test [3] relates to mitochondrial protein synthesis in HepG2 cells (COX-I / SDH-A). Briefly: Mitochondrial protein synthesis assay. Format: cell-based. Particulars: Homo sapiens, read-out: MPS IC50_μM. On the procedure: (§1) Inhibition of mitochondrial protein synthesis was assessed in HepG2 cells by comparing the levels of two subunits of oxidative phosphorylation enzyme complexes, subunit I of Complex IV (COX-I) and the 70 kDa subunit of Complex II (SDH-A). COX-I is mitochondrial DNA encoded and SDH-A is nuclear DNA encoded. HepG2 cells were seeded in 96-well collagen coated plates at 8,000 cells per well and exposed to 2-fold serial dilutions of compounds from 100 LM to 6.25 μM. Microtiter plates were incubated for approximately 5 replication cycles (4 days) prior to assessment of protein levels using a kit as described by the manufacturer (ab 110217 MitoBiogenesis In Cell ELISA Kit, Abcam, Cambridge, Mass.). Inhibition of mitochondrial protein synthesis was expressed as a ratio of COX-1 to SDH-A levels.
as §1, with “μM” for “LM”

The mark [4] stands for this setting: pH 6.8, read-out: Mtb Cho MITC95_μM.
The mark [5] stands for this setting: pH 6.8, read-out: Mtb Glu MITC95_μM.
The mark [6] stands for this setting: 96 h, HepG2 cells, 4 days, ratio of COX-1 to SDH-A levels.

With `CSc1ccc(-c2ccc(N3C[C@H](CNC(=O)C4CC4)OC3=O)cc2F)cc1` [Example 41, (S)—N-((3-(2-fluoro-4′-(methylthio)-[1,1′-biphenyl]-4-yl)-2-oxooxazolidin-5-yl)methyl)cyclopropanecarboxamide], the MIC was determined as 0.04 µM (≈ 0.016 µg/mL) in test [1] (setting [4]), 0.04 µM (≈ 0.016 µg/mL) in test [1] (setting [5]) and 200 µM (≈ 80.1 µg/mL) in test [2]. In test [3] (setting [6]), the IC50 was 8 µM.
As for `COC(=O)NC[C@H]1CN(c2ccc(-c3ccc(SC)cc3)c(F)c2)C(=O)O1` [Example 62, (S)-methyl ((3-(2-fluoro-4′-(methylthio)-[1,1′-biphenyl]-4-yl)-2-oxooxazolidin-5-yl)methyl)carbamate], the MIC in test [1] (setting [4]) is 0.04 µM (≈ 0.0156 µg/mL); in test [1] (setting [5]) it was 0.04 µM (≈ 0.0156 µg/mL); in test [2], 200 µM (≈ 78.1 µg/mL). In addition, the IC50 in test [3] (setting [6]) came to 10 µM.
As to `CSc1ccc(-c2ncc(N3C[C@H](CNC(C)=O)OC3=O)cc2F)cc1` [Example 40, (S)—N-((3-(5-fluoro-6-(4-(methylthio)phenyl)pyridin-3-yl)-2-oxooxazolidin-5-yl)methyl)acetamide], the values for the MIC in test [1] (setting [4]), in test [1] (setting [5]) and in test [2] were 0.09 µM (≈ 0.0338 µg/mL), 0.076 µM (≈ 0.0285 µg/mL) and 4.69 µM (≈ 1.76 µg/mL), respectively. Further, the IC50 in test [3] (HepG2, 96 h) was over 15 µM.
With `NC[C@H]1CN(c2ccc(-c3ccc(F)nc3)c(F)c2)C(=O)O1` [Example 19, (5S)-5-(aminomethyl)-3-[3-fluoro-4-(6-fluoropyridin-3-yl)phenyl]-1,3-oxazolidin-2-one], the MIC in test [1] (setting [4]) was found to be 0.09 µM (≈ 0.0275 µg/mL); in test [1] (setting [5]) it was 0.485 µM (≈ 0.148 µg/mL); in test [2], 200 µM (≈ 61.1 µg/mL). The IC50 in test [3] (setting [6]) is over 20 µM.
As to `NC[C@H]1CN(c2ccc(-c3ccc(C4CC4)nc3)c(F)c2)C(=O)O1` [Example 33, (5S)-5-(aminomethyl)-3-[4-(6-cyclopropylpyridin-3-yl)-3-fluorophenyl]-1,3-oxazolidin-2-one], the MIC in test [1] (setting [4]) was found to be 0.19 µM (≈ 0.0622 µg/mL); in test [1] (setting [5]), 0.845 µM (≈ 0.277 µg/mL); in test [2], 200 µM (≈ 65.5 µg/mL). In test [3] (setting [6]), the IC50 was over 20 µM.
On the same counts, the results for `NC[C@H]1CN(c2ccc(-c3ccc4cc[nH]c4c3)c(F)c2)C(=O)O1` [Example 27, (5S)-5-(aminomethyl)-3-[3-fluoro-4-(1H-indol-6-yl)phenyl]-1,3-oxazolidin-2-one] are 0.78 µM (≈ 0.254 µg/mL), 0.39 µM (≈ 0.127 µg/mL), 200 µM (≈ 65.1 µg/mL) and over 50 µM.
On the same counts, the results for `NC[C@H]1CN(c2ccc(-c3ccnc4[nH]ccc34)c(F)c2)C(=O)O1` [Example 31, (5S)-5-(aminomethyl)-3-[3-fluoro-4-(1H-pyrrolo[2,3-b]pyridin-4-yl)phenyl]-1,3-oxazolidin-2-one] are 0.78 µM (≈ 0.255 µg/mL), 0.39 µM (≈ 0.127 µg/mL), 200 µM (≈ 65.3 µg/mL) and over 20 µM.
In the case of `CSc1ccc(-c2ccc(N3CC(Cn4ccnc4)OC3=O)cc2F)cc1` (stereo in doubt) [Example 45, (5R)-3-[2-fluoro-4′-(methylsulfanyl)biphenyl-4-yl]-5-(1H-imidazol-1-ylmethyl)-1,3-oxazolidin-2-one], the MIC in test [1] (setting [4]) was found to be 0.39 µM (≈ 0.15 µg/mL); in test [1] (setting [5]) it was 1.14 µM (≈ 0.437 µg/mL); in test [2], 200 µM (≈ 76.7 µg/mL).
Take `CSc1ccc(-c2ccc(N3C[C@H](CN)OC3=O)cc2F)cc1` [Example 1, (S)-5-(aminomethyl)-3-(2-fluoro-4′-(methylthio)-[1,1′-biphenyl]-4-yl)oxazolidin-2-one]: the results for the MIC in test [1] (setting [4]), in test [1] (setting [5]) and in test [2] were 0.03 µM (≈ 0.00997 µg/mL), 0.04 µM (≈ 0.0133 µg/mL) and 25 µM (≈ 8.31 µg/mL), respectively. In addition, in test [3] (setting [6]), the IC50 came to 12.2 µM.
On the same counts, the results for `NC[C@H]1CN(c2ccc(-c3ccccc3)c(F)c2)C(=O)O1` [Example 39, (5S)-5-(aminomethyl)-3-(2-fluorobiphenyl-4-yl)-1,3-oxazolidin-2-one] are 0.78 µM (≈ 0.223 µg/mL), 0.585 µM (≈ 0.167 µg/mL), 200 µM (≈ 57.3 µg/mL) and over 20 µM.
On the same counts, the results for `NCC(=O)NC[C@H]1CN(c2ccc(-c3ccc(C(N)=O)cc3)c(F)c2)C(=O)O1` [Example 57, (S)-4′-(5-((2-aminoacetamido)methyl)-2-oxooxazolidin-3-yl)-2′-fluoro-[1,1′-biphenyl]-4-carboxamide] are 0.535 µM (≈ 0.207 µg/mL), 0.29 µM (≈ 0.112 µg/mL), 25 µM (≈ 9.66 µg/mL) and 50 µM.
On the same counts, the results for `CSc1ccc(-c2ccc(N3C[C@H](Cn4cncn4)OC3=O)cc2F)cc1` [Example 43, (R)-5-((1H-1,2,4-triazol-1-yl)methyl)-3-(2-fluoro-4′-(methylthio)-[1,1′-biphenyl]-4-yl)oxazolidin-2-one] are 0.19 µM (≈ 0.073 µg/mL), 0.58 µM (≈ 0.223 µg/mL), 200 µM (≈ 76.9 µg/mL) and over 20 µM.
In the case of `NC[C@H]1CN(c2ccc(-c3ccc(S(N)(=O)=O)cc3)c(F)c2)C(=O)O1` [Example 6, 4′-[(5S)-5-(aminomethyl)-2-oxo-1,3-oxazolidin-3-yl]-2′-fluorobiphenyl-4-sulfonamide], the MIC in test [1] (setting [4]) amounted to 0.04 µM (≈ 0.0146 µg/mL); in test [1] (setting [5]), 0.04 µM (≈ 0.0146 µg/mL); in test [2], 100 µM (≈ 36.5 µg/mL). Moreover, the IC50 in test [3] (setting [6]) was over 20 µM.
Regarding `CN(C)S(=O)(=O)c1ccc(-c2ccc(N3C[C@H](CN)OC3=O)cc2F)cc1` [Example 14, 4′-[(5S)-5-(aminomethyl)-2-oxo-1,3-oxazolidin-3-yl]-2′-fluoro-N,N-dimethylbiphenyl-4-sulfonamide], the MIC in test [1] (setting [4]) was determined as 1.14 µM (≈ 0.449 µg/mL); in test [1] (setting [5]), 0.78 µM (≈ 0.307 µg/mL); in test [2], 200 µM (≈ 78.7 µg/mL).
On to `NC[C@H]1CN(c2ccc(-c3ccc(O)cc3)c(F)c2)C(=O)O1` [Example 11, (5S)-5-(aminomethyl)-3-(2-fluoro-4′-hydroxybiphenyl-4-yl)-1,3-oxazolidin-2-one], for which the figures for the MIC in test [1] (setting [4]), in test [1] (setting [5]) and in test [2] were 0.14 µM (≈ 0.0423 µg/mL), 25.1 µM (≈ 7.59 µg/mL) and 200 µM (≈ 60.5 µg/mL), respectively.
On the same counts, the results for `NC[C@H]1CN(c2ccc(-c3cnn(C(F)F)c3)c(F)c2)C(=O)O1` [Example 36, (5S)-5-(aminomethyl)-3-{4-[1-(difluoromethyl)-1H-pyrazol-4-yl]-3-fluorophenyl}-1,3-oxazolidin-2-one] are 0.48 µM (≈ 0.157 µg/mL), 1.5 µM (≈ 0.489 µg/mL) and 200 µM (≈ 65.3 µg/mL).
On the same counts, the results for `NC[C@H]1CN(c2ccc(-c3cncc4[nH]ccc34)c(F)c2)C(=O)O1` [Example 35, (5S)-5-(aminomethyl)-3-[3-fluoro-4-(1H-pyrrolo[2,3-c]pyridin-4-yl)phenyl]-1,3-oxazolidin-2-one] are 0.58 µM (≈ 0.189 µg/mL), 1.14 µM (≈ 0.372 µg/mL) and 200 µM (≈ 65.3 µg/mL).
On the same counts, the results for `NC[C@H]1CN(c2ccc(-c3ccsc3)c(F)c2)C(=O)O1` [Example 15, (5S)-5-(aminomethyl)-3-(3-fluoro-4-thiophen-3-ylphenyl)-1,3-oxazolidin-2-one] are 0.58 µM (≈ 0.17 µg/mL), 1.14 µM (≈ 0.333 µg/mL) and 200 µM (≈ 58.5 µg/mL).
For `NC[C@H]1CN(c2ccc(-c3ccoc3)c(F)c2)C(=O)O1` [Example 12, (5S)-5-(aminomethyl)-3-(3-fluoro-4-furan-3-ylphenyl)-1,3-oxazolidin-2-one], the results for the MIC in test [1] (setting [4]), in test [1] (setting [5]) and in test [2] were 1.14 µM (≈ 0.315 µg/mL), 1.14 µM (≈ 0.315 µg/mL) and 200 µM (≈ 55.3 µg/mL), respectively.
Take `CSc1ccc(-c2ccc(N3C[C@H](CNC(=O)NN(C)C)OC3=O)cc2F)cc1` [Example 60, (S)—N-((3-(2-fluoro-4′-(methylthio)-[1,1′-biphenyl]-4-yl)-2-oxooxazolidin-5-yl)methyl)-2,2-dimethylhydrazinecarboxamide]: the MIC in test [1] (setting [4]) came to 1.14 µM (≈ 0.477 µg/mL); in test [1] (setting [5]), 2.3 µM (≈ 0.963 µg/mL); in test [2], 200 µM (≈ 83.7 µg/mL).
